Assay results published in patent publication US20050227300A1, “Use of alpha-tubulin acetylation levels as a biomarker for protein deacetylase inhibitors” (priority 2001, published 2005).

Legend:
HCT 166 cells = assay: 2-D gel electrophoresis / western blotting with anti-acetyllysine of extracts of HDAC-2 treated cells; assay type: cell-based, human; details: HDAC-2 treated vs control, IEF pH 3-10
Text: For Identifying the protein, cell extracts of HDAC-2 treated and control HCT 166 cells are separated by 2-D gel electrophoresis with a broad range IEF gel (pH 3-10) in the first dimension and analyzed by western blotting with anti-acetyllysine.
One set of gels is used for immunoblotting with anti-acetyllysine antibody detection and a second set is reserved for staining of the gel with Coomassie blue.

[1] = tested on: Tubulin Acetylation in HCT 116 Tumor Xenografts; assay: Tubulin acetylation in HCT 116 tumor xenografts in mice (western blotting with anti-acetylated alpha-tubulin antibody); assay type: in vivo
Experimental: In order to correlate the antitumor activity of HDAC-2 with its induction of tubulin acetylation, levels of acetylated tubulin are examined in tumors of athymic mice bearing HCT 116 treated with HDAC-2 and control mice. Mice are dosed with 100 mg/kg of HDAC-2 and the tumors are dissected 3, 6, 16 or 24 h post dose. Tubulin acetylation levels are detected with antibodies specific for acetylated alpha-tubulin. […] Tumors are dissected 1 hour post dose and levels of acetylated tubulin determined by western blotting with the anti-acetylated alpha-tubulin antibody.

[2] = tested on: alpha-tubulin acetylation; assay: Time course of HDAC-2 induced tubulin acetylation in cell lines; assay type: cell-based; details: 200 nM
Text: Time Course of HDAC-2 Induced Tubulin Acetylation in Cell Lines

[3] = athymic mice bearing HCT 116, 100 mg/kg, intravenous

Which “anti-acetyllysine immunostaining of cell extracts (histone bands and non-histone spot around pH 4.5, later identified as acetylated alpha-tubulin)” value (HCT 166 cells) does the source give for `O=C(/C=C/c1ccc(CN(CCO)CCc2c[nH]c3ccccc23)cc1)NO` [HDAC-2, N-hydroxy-3-[4-[[(2-hydroxyethyl)[2-(1H-indol-3-yl)ethyl]-amino]methyl]phenyl]-2E-2-propenamide] here?
Its value is “prominently stained bands of low molecular weight corresponding to histones are visible at the lower right corner as well as a non-histone spot around pH 4.5”.

What about the “induction of tubulin acetylation in the tumors” value ([1]; HCT 116 tumor bearing mice, i.v. dose as low as 2 mg/kg, 1 hour post dose) of the same compound?
The value was “able to induce tubulin acetylation”.

And the “Proliferating Cell Nuclear Antigen (PCNA) levels in tumors” value [1, 3]?
The value was “essentially invariant”.

And the “duration of increase in acetylated alpha-tubulin in tumors” value [1, 3]?
Its value is “at least 8 h”.

What about the “time to consistent increases in acetylated alpha-tubulin in tumors” value [1, 3] of the same compound?
The value was no more than 30 min.

And the “time of maximal alpha-tubulin acetylation” value [2]?
The value was 4 h.

What about the “acetylation of alpha-tubulin reached, relative to the maximal acetylation (at 4 hours)” value ([2]; 30 min after addition) of the same compound?
The value was “more than 30%”.

And the “state of cells at last time point” value ([2]; 18 hours)?
The value was “cells are visibly damaged”.
